Experimental data: ChEMBL document CHEMBL5360558, “Molecular design, synthesis and anticancer activity of new thiopyrano[2,3-d]thiazoles based on 5-hydroxy-1,4-naphthoquinone (juglone)” (Eur J Med Chem, 2023)
The source made the active and inactive calls. The rule behind the calls is not given here.

What was measured:
[1] = tested on: NCI-H522; assay: Growth inhibition of human NCI-H522 cells incubated for 48 hrs by sulforhodamine B spectrophotometric assay; type: functional
[2] = tested on: KB 3-1; assay: Cytotoxicity against human KB 3-1 cells assessed as cell growth inhibition incubated for 72 hrs by MTT assay; type: functional, cell-based; details: KB 3-1, 72 h
[3] = tested on: OVCAR-5; assay: Growth inhibition against human OVCAR-5 cells assessed as total growth inhibitory concentration incubated for 48 hrs by sulforhodamine B spectrophotometric assay; type: functional
[4] = tested on: MDA-MB-231; assay: Growth inhibition against human MDA-MB-231 cells assessed as total growth inhibitory concentration incubated for 48 hrs by sulforhodamine B spectrophotometric assay; type: functional
[5] = GSH reactivity of compound at pH 7.4 phosphate buffer assessed as GSH-adduct formation at 1 mM incubated for 1 hr in presence of sodium borohydride by spectrophotometric analysis; type: physicochemical; details: pH 7.4, 1 h, 1000 µM
[6] = tested on: MDA-MB-468; assay: Growth inhibition against human MDA-MB-468 cells assessed as total growth inhibitory concentration incubated for 48 hrs by sulforhodamine B spectrophotometric assay; type: functional
[7] = tested on: TK-10; assay: Growth inhibition of human TK-10 cells incubated for 48 hrs by sulforhodamine B spectrophotometric assay; type: functional
[8] = tested on: MDA-MB-231; assay: Induction of mitochondrial membrane potential loss in human MDA-MB-231 cells at 5 uM incubated for 24 hrs by JC-1 staining based flow cytometry analysis; type: functional
[9] = tested on: CCRF-CEM; assay: Induction of cell cycle arrest in human CCRF-CEM cells assessed as DNA synthesis at 20.7 uM incubated for 2.5 hrs by BrdU incorporation based flow cytometry analysis (reference value: 42.4 +/- 0.66%); type: functional
[10] = tested on: Malme-3M; assay: Anticancer activity against human Malme-3M cells assessed as cell growth at 10 uM incubated for 48 hrs by sulforhodamine B assay; type: functional; details: read-out: Activity
[11] = tested on: TK-10; assay: Growth inhibition against human TK-10 cells assessed as total growth inhibitory concentration incubated for 48 hrs by sulforhodamine B spectrophotometric assay; type: functional
[12] = tested on: SF-268; assay: Growth inhibition of human SF-268 cells incubated for 48 hrs by sulforhodamine B spectrophotometric assay; type: functional
[13] = tested on: UO-31; assay: Growth inhibition of human UO-31 cells incubated for 48 hrs by sulforhodamine B spectrophotometric assay; type: functional
[14] = GSH reactivity of compound at pH 7.4 phosphate buffer assessed as GSH-adduct formation at 1 mM incubated for 1 hr by spectrophotometric analysis; type: physicochemical; details: pH 7.4, 1 h, 1000 µM
[15] = tested on: MDA-MB-435; assay: Growth inhibition of human MDA-MB-435 cells incubated for 48 hrs by sulforhodamine B spectrophotometric assay; type: functional
[16] = tested on: T47D; assay: Growth inhibition against human T47D cells assessed as total growth inhibitory concentration incubated for 48 hrs by sulforhodamine B spectrophotometric assay; type: functional
[17] = tested on: NCI-H226; assay: Growth inhibition against human NCI-H226 cells assessed as lethal concentration incubated for 48 hrs by sulforhodamine B spectrophotometric assay; type: functional; details: read-out: LC50 (the source's name)
[18] = tested on: A498; assay: Growth inhibition of human A498 cells incubated for 48 hrs by sulforhodamine B spectrophotometric assay; type: functional
[19] = tested on: K562; assay: Growth inhibition against human K562 cells assessed as lethal concentration incubated for 48 hrs by sulforhodamine B spectrophotometric assay; type: functional; details: read-out: LC50 (the source's name)
[20] = tested on: SK-MEL-5; assay: Growth inhibition against human SK-MEL-5 cells assessed as total growth inhibitory concentration incubated for 48 hrs by sulforhodamine B spectrophotometric assay; type: functional
[21] = tested on: KB 3-1; assay: Induction of apoptosis in human KB 3-1 cells assessed as increase in […] protein expression at 0.5 to 5 uM incubated for 3 hrs by Western blotting assay; type: functional, cell-based; details: dose 0.5-5 µM
[22] = tested on: HCC 2998; assay: Growth inhibition against human HCC 2998 cells assessed as total growth inhibitory concentration incubated for 48 hrs by sulforhodamine B spectrophotometric assay; type: functional
[23] = tested on: NCI-H522; assay: Growth inhibition against human NCI-H522 cells assessed as total growth inhibitory concentration incubated for 48 hrs by sulforhodamine B spectrophotometric assay; type: functional
[24] = tested on: MDA-MB-231; assay: Induction of apoptosis in human MDA-MB-231 cells assessed as increase in caspase-9 level at 5 uM incubated for 24 hrs by flow cytometry analysis; type: functional

SMILES: O=C1C2=C(C(=O)c3c(O)cccc31)C(c1ccco1)c1sc(=O)[nH]c1S2 (centres undefined)
- GI50 [1]: 2.31 µM
- IC50 [2]: 0.75 µM
- TGI [3]: 4.58 µM
- TGI [4]: 9.08 µM
- Activity [5]: Active
- TGI [6]: 6.59 µM
- GI50 [7]: 12.3 µM
- Activity [8]: 15.7%
- Activity [9]: 0.9%
- growth at 10 µM [10]: -92.3%
- TGI [11]: 26.4 µM
- GI50 [12]: 3.48 µM
- GI50 [13]: 2.56 µM
- Activity [14]: Active
- GI50 [15]: 1.16 µM
- TGI [16]: 13 µM
- CC50 [17]: 27.3 µM
- GI50 [18]: 3.48 µM
- CC50 [19]: > 100 µM
- TGI [20]: 3 µM
- Activity [21]: inactive
- TGI [22]: 5.51 µM
- TGI [23]: 6.99 µM
- Activity [24]: 15%
